According to article PMC10767055, “Different binding modalities of quercetin to inositol-requiring enzyme 1 of S. cerevisiae and human lead to opposite regulation” (Communications Chemistry, 2024):

Columns and labels:
[1] = target: T1, human IRE1 (hIRE1, IRE1α) (Homo sapiens, UniProt O75460); assay: MST displacement of fluorescent Kinase Tracer […] (positive control); format: binding
T1 construct: gene ERN1; aa 465-977, His & GST Tag

[2] = target: T1, human IRE1 (hIRE1, IRE1α); assay: in vitro RNase cleavage assay, recombinant IRE1, fluorescence-quenched mini XBP1 RNA probe; format: biochemical

T1 sequence (O75460 465-977): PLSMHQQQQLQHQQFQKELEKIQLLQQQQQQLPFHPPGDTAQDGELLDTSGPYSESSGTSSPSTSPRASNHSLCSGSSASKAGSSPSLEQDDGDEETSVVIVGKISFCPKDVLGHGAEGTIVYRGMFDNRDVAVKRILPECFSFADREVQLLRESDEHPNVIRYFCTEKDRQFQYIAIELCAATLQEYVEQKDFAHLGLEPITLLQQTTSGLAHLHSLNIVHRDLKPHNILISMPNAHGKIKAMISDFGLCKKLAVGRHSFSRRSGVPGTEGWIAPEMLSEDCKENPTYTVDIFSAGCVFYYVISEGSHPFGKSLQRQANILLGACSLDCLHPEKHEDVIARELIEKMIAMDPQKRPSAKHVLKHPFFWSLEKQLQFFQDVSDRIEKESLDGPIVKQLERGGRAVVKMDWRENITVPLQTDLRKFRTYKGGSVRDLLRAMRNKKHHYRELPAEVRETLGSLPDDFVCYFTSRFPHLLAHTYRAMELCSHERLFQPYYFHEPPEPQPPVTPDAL

Compound | IC50 [1] | IC50 [2]
Cc1ccc2c(NS(=O)(=O)c3ccccc3Cl)cccc2c1Oc1ncccc1-c1ccnc(N[C@H]2CCCNC2)n1 [KIRA8] | 0.073 ± 0.005 µM | 
O=c1c(O)c(-c2ccc(O)c(O)c2)oc2cc(O)cc(O)c12 [Qe, Quercetin] |  | 0.272 ± 0.15 µM
C[C@@H]1O[C@@H](Oc2c(-c3ccc(O)c(O)c3)oc3cc(O)cc(O)c3c2=O)[C@H](O)[C@H](O)[C@H]1O [Qi, Quercitrin] |  | 0.226 ± 0.07 µM
